Here are results for two compounds from US11369625B2, “Anti-tumor agent, anti-tumor effect enhancer, and anti-tumor kit” (FUJIFILM Corporation, priority 2017, dated 2022).

Assay [1] concerns human pancreatic cancer cell line Capan-1. The experiment in a line: Combinational effect test in Capan-1 subcutaneously implanted tumor-bearing model mouse (anti-tumor effect). The settings on record: for T/C (%): average RTV of treated group / average RTV of control group x 100, Day 33; for GC (%): growth of control, calculated from RTV at Day 33; for RTV (mean ± standard deviation): relative tumor volume, TV at Day 33 / TV at Day 1, tail vein once a week, three times, n=8; for vs. control: statistical significance of RTV vs. control group, Day 33. Format: in vivo, BALB/cA Jcl-nu mice. Also noted: key to vs. control: * statistically significant. The method, then:
Combinational effect test in Capan-1 subcutaneously implanted tumor-bearing model mouse
Gemcitabine (hereinafter, also referred to as Gem), Abraxane (hereinafter, also referred to as Abx), and methanesulfonate of Compound A were used as test substances.
Gemcitabine was prepared by dissolving gemcitabine hydrochloride (manufactured by Teva Pharmaceutical Industries Limited) in physiological saline. Abraxane was prepared by dissolving Abraxane (manufactured by Celgene Corporation) in physiological saline.
Capan-1 cell, a human pancreatic cancer cell line, was subcutaneously injected into the posterior flank of 5 to 6-week old female BALB/cA Jcl-nu mice. After tumor implantation, the major diameter (mm) and minor diameter (mm) of the tumor were measured, and the tumor volume (TV) was calculated. Mice were assigned to each group so that the average TV of each group was equal, and the day on which this grouping (n=8) was carried out was taken as Day 1.
The test liquid in Abraxane alone group was prepared to be 30 mg/kg/day as the administration dose. In addition, the test liquid in Compound A alone group was prepared to be 480 mg/kg/day. Compound A was administered from the mouse tail vein a total of three times from Day 1 once a week, and Abraxane was similarly administered from the mouse tail vein a total of three times from Day 1 once a week. In the combined administration group, Compound A was administered at 480 mg/kg/day and Abraxane was administered at 30 mg/kg/day.
As a comparative experiment, gemcitabine was used as a control. The test liquid of gemcitabine alone group was prepared to be 240 mg/kg/day. Gemcitabine was administered from the mouse tail vein a total of three times from Day 1 once a week. In the combined administration group, gemcitabine was administered at 240 mg/kg/day and Abraxane was administered at 30 mg/kg/day.
In this test, doses of Compound A and gemcitabine were set using MTD of each drug. Abraxane was used at the maximum dose usable in combination with each drug. […] In this test example, the MTD and the maximum effect dose are almost synonymous.
As an index of anti-tumor effect, TV at Day 33 was measured in each drug administration group. According to the following equation, a relative tumor volume (RTV) with respect to Day 1 and T/C (%) were calculated to evaluate the anti-tumor effect. […] TV (mm^3)=(major diameter×minor diameter^2)/2 RTV=(TV at Day 33)/(TV at Day 1) T/C (%)=[(average RTV value of test liquid administered group)/(average RTV value of control group)]×100
On the combinational effect of the present invention, the results of evaluation using a combination index (CI) which is a quantitative index of the combinational effect are shown. The CI can be calculated by the following equation according to Cancer Research, 2010, Vol. 70, pp. 440 to 446.
That is, in the case where the drugs to be used in combination are drugs 1 and 2, CI=(T/C at the time of combination use)÷100/{[(T/C of drug 1)÷100]×[(T/C of drug 2)÷100]} CI=1: additive effect CI>1: antagonistic effect CI<1: synergistic effect
In addition, on the combinational effect of the present invention, the results of evaluation using a tumor growth inhibitory effect (growth of control (GC)) are shown. For the evaluation method, the same method as in B of FIG. 5 of Molecular Cancer Therapeutics, 2013, Vol. 12, pp. […] was used.
As described in the above document, the GC can be calculated by the following equation. In the case where RTV>1 GC (%)=[(corresponding drug RTV-1)/(control RTV-1)]×100 [1] In the case where RTV≤1 GC (%)=(corresponding drug RTV-1)×100 [2]
Combinational effect was estimated from the drug efficacy with Abraxane and Compound A or gemcitabine alone by the following calculation equation. The estimated combination use GC (%)=[GC (%) of Abraxane×drug alone GC (%)]÷100

In the next assay the test system is tumor. The settings on record: oral administration to mice; cited from earlier work.

Turning to `Nc1ccn([C@@H]2S[C@H](CO)[C@@H](O)[C@@H]2F)c(=O)n1` [Compound A, 1-(2-deoxy-2-fluoro-4-thio-β-D-arabinofuranosyl)cytosine], the “enhancement of anti-tumor effect in combination use” value in assay [1] (Compound A 480 mg/kg/day with Abraxane 30 mg/kg/day, nude mice) is “significantly enhanced the anti-tumor effect of Abraxane”. In assay [1], the “T/C (%)” value worked out at 32.2%, the “GC (%)” value is on record as 9.6%, the “RTV (mean ± standard deviation)” value turned out to be 1.29 ± 0.59 and the vs. control entry is on record as “*”. Further, in the assay on tumor, the anti-tumor activity entry is reported as “potent anti-tumor activity”.

As for `Nc1ccn([C@@H]2O[C@H](CO)[C@@H](O)C2(F)F)c(=O)n1` [Gem, gemcitabine, reference compound], in assay [1], the “T/C (%)” value worked out at 68.3%, the “GC (%)” value was 57.8%, the “RTV (mean ± standard deviation)” value was determined as 2.74 ± 0.41 and the vs. control entry is reported as “*”.
